Measurements taken from US20110244063A1, “NOVEL SEBUM SECRETION INHIBITORY AGENT” (BASF Beauty Care Solutions France S.A.S., priority 2008, published 2011).

What was measured:
Assay type in all cases: in vivo, human
[1] = system: Caucasian and Asian volunteers; experiment: Number of active sebaceous glands (number of spots on Sebutape patches, image analysis)
Protocol: (§1) The principle of this evaluation is based on the clinical and instrumental analysis of samples of secretions of sebum using Sebutape™ patches according to the conventional method.
(§2) The products tested were: • the extract according to the invention prepared in accordance with Example 1 a) is tested at final concentrations of from 0.5% to 2% of extract 1 a) diluted in water • an aqueous solution of zinc gluconate at 1% (10 mg/mL; 2.2×10^−2 mol/L) in water is used as positive control • no solution as negative control
The following treatment was carried out for each of the products tested: Caucasian and Asian volunteers applied a test product once a day, in blind conditions. Clinical and instrumental assessments, by application of Sebutape™ patches, were carried out on D0, D14 and D28 and the contents of these samples of Sebutape™ patches were analysed quantitatively by image analyser (polarimetric imaging). […]
(§3) The experiment was conducted on Caucasian and Asian volunteers according to the conditions described in Example 3 for 28 days of treatment (last application on D27 in the evening). Assessments carried out on D30 allowed the persistence of the effect of an extract according to the invention on the production of sebum to be evaluated, two days after stopping the treatment.

[2] = system: Caucasian and Asian volunteers; experiment: Squalene content of sebum sampled with Sebutape patches (HPTLC, densitometry); details: after 28 days of treatment; zinc gluconate 1%; signed change
Protocol: as §1, §2
(§4) The following treatment was carried out for each of the products tested: Caucasian and Asian volunteers applied a test product once a day, in blind conditions. Clinical and instrumental assessments, by application of Sebutape™ patches, were carried out on D0, D14 and D28 and the contents of these samples of Sebutape™ patches were analysed quantitatively by image analyser (polarimetric imaging).
Determination of the squalene taken in the Sebutape™ patches was carried out as follows:
The Sebutape™ patches were treated by extraction with 10 ml of ether. […]
The squalene spots were then quantified by densitometry using an instrument of the ChromatoScan CS-93 (Shimadzu) type. Reading was based on absorption at 450 nm and the area of the peaks was expressed in arbitrary units in the table of results given below.

[3] = system: Asian volunteers; experiment: Self-evaluation of skin texture (refinement of skin grain) after stopping treatment; details: 2 days after stopping the treatment, extract at 2%, zinc gluconate positive control
Protocol: as §3
Results for skin texture: (self-evaluation)
Moreover, 2 days after stopping the treatment, 71% of the Asian volunteers who had applied the extract according to Example 1 a) at 2% declared that there was refinement of their skin grain (p<0.05). In comparison, only 52% of the volunteers in the group of volunteers who had applied the positive control (zinc gluconate) noticed an improvement in this parameter.

[4] = system: Caucasian and Asian volunteers; experiment: Clinical assessment of pore size and shiny appearance in volunteers, once-daily topical application; details: after 28 days of treatment, extract at 2%, zinc gluconate 1%
Protocol: as §1, §2, §4, §3

zinc gluconate [Zinc gluconate 1%] was tested, and the “Active sebaceous glands, % Dn/D0, 2 days after D28” value ([1]; number of spots on Sebutape patches 2 days after stopping the treatment compared against D0) was −3.8%, the “Active sebaceous glands, % Dn/D0, D28” value ([1]; number of spots on Sebutape patches after 28 days compared against D0) was “+8.5%” and the “Change of content of squalene in the sebum” value [2] was −14%. The “Volunteers who declared refinement of their skin grain (self-evaluation)” value [3] was 52% and the “Reduction of pore size (clinical assessment)” value [4] was 17.5%.
